US6121257A, “Sulfamate containing macrocyclic immunomodulators” (Abbott Laboratories, priority 1999, dated 2000)

Assays:
[1] = system: human mixed lymphocyte reaction (MLR); assay: human mixed lymphocyte reaction (MLR) assay; assay type: cell-based; settings: Table 1
Experimental: The immunosuppressant activity of the compounds of the present invention was determined using the human mixed lymphocyte reaction (MLR) assay described by Kino, T. et al., in Transplantation Proceedings, XIX(5):36-39, Suppl. 6 (1987), hereby incorporated by reference.

[2] = in vivo; parameters: species or system Lewis rats; settings: rat, 5 mg/kg
Experimental: In Vivo Assay of Biological Activity Whole blood concetration in the Rat.
Lewis rats (obtained from Charles River, Wilmington, Mass.), weighing 225-250 grams, were acclimated for one week in a AAALAC approved facility. All animals were fasted overnight prior to dosing and throughout the study period but were permitted free access to water. Groups of animals were given FK-506 or Example 14 at a dose of 5 mg/kg. Drugs were given in a 2 ml/kg volume of 10% ethanol, 40% propylene glycol and 2% cremophore in 5% dextrose solution for both oral (p.o.) and intraperitoneal (i.p.) administration, and in a 1 ml/kg volume of the same vehicle without cremophor for intravenous (i.v.) dosing. Blood samples were collected from the tail vein in heparinized tubes at selected time points 0.25, 2.0, and 4.0 hours after dosing.
Drugs were separated from the hemolyzed whole blood contaminants utilizing liquid-liquid extraction with ethyl acetate:hexane (1:1 by volume). Samples were centrifuged at 1200 x g for 10 minutes (4° C.) and a constant volume of the organic layer was transferred to a conical centrifuge tube and evaporated to dryness with a gentle stream of dry air over low heat (~35° C.). The samples were reconstituted with 40% (v/v) acetonitrile in water with vortexing. The compounds of interest were separated from the co-extracted components by a 5 cm×4.6 mm, 3 μm Spherisorb ODS-2 column (Regis, Morton Grove, Ill.) with an acetonitrile:methanol: 0.1% trifluoroacetic acid/0.01 M tetramethylammonium perchlorate mixture (45:5:50 by volume for FK506, 40:5:55 for analogue Example 14) at a flow rate of 1.0 ml/min with UV detection at 205 nm. The temperature of the HPLC column was maintained at 70° C.
The concentration of each sample in whole blood was calculated by a least squares linear regression analysis of the peak area compared to spiked rat blood standards.

IC50 [1] | concentration at 0.25 h [2] | concentration at 2 h [2] | Whole Blood Concentration at 4 hours ([2]; 240 min) | concentration at 4 h [2] | Compound | elimination from the blood [2]
0.82 nM | 1400 ng/mL | 50 ng/mL | 0.00 µg/mL |  | CC[C@@H]1/C=C(\C)C[C@H](C)C[C@H](OC)[C@H]2O[C@@](O)(C(=O)C(=O)N3CCCC[C@H]3C(=O)O[C@H](/C(C)=C/[C@@H]3CC[C@@H](OS(N)(=O)=O)[C@H](OC)C3)[C@H](C)[C@@H](O)CC1=O)[C@H](C)C[C@@H]2OC [Example 14] | rapidly eliminated from the blood after 2 hours
 | 1140 ng/mL | 440 ng/mL |  | 430 ng/mL | C=CC[C@@H]1/C=C(\C)C[C@H](C)C[C@H](OC)[C@H]2O[C@@](O)(C(=O)C(=O)N3CCCC[C@H]3C(=O)O[C@H](/C(C)=C/[C@@H]3CC[C@@H](O)[C@H](OC)C3)[C@H](C)[C@@H](O)CC1=O)[C@H](C)C[C@@H]2OC [FK-506, reference compound] | 
